Patent US20210371413A1, “POLYCYCLIC AMIDES AS CYTOTOXIC AGENTS” (FEMTOGENIX LIMITED, priority 2018, published 2021)
≈ marks a conversion by molar mass, not a printed value.

Tests used:
Type in all cases: cell-based
LIM1215 = assay: In vitro cell-killing, MTT assay, LIM1215; details: LIM1215, 72 h, read-out: In vitro cell-killing (IC50), Cytotoxicity (72 hours)
Method: Tumor cell lines were maintained in RPMI1640 medium supplemented with 10% heat-inactivated fetal bovine serum, 2 mM L-glutamine and 1 mM sodium pyruvate. 1800 cells per well were seeded in a volume of 180 μl in a 96-well flat bottom polystyrene plate. The cells were allowed to adhere overnight at 37° C. in a CO2 incubator. Ligands were initially formulated in DMSO, and stocks stored at −80° C. They were then further formulated at lox concentration in RPMI1640 medium. 20 ul of diluted samples were added into each treatment well. On each plate, blank wells with no cells, and untreated wells containing cells, were included. Plates were then cultured at 37° C. in a CO2 incubator for 72 hrs. Cytotoxicity was evaluated using a tetrazolium salt-based assay, the MTT assay. After 72 hours, the supernatant was removed from each well and 200 μl of a sterile filtered 500 μg/ml MTT solution in water added to each well. […] The plate was then read on a plate reader at 540 nm, and percentage cell survival calculated as follows: ((mean absorbance treated wells at concentration x−mean absorbance blank wells)+(mean absorbance untreated wells at concentration x−mean absorbance blank wells))×100. Data were plotted as concentration in nM vs. % cell survival in Microsoft Excel, and IC50 values (concentration where cell survival is reduced by a half) were determined from the graph.

A431 (Skin) = assay: In vitro cytotoxicity, MTT assay, A431; details: Homo sapiens, A-431, 72 h, read-out: Cytotoxicity
Method: The in vitro cytotoxicity of a selection of compounds were evaluated in a panel of cell lines using the standard MTT assay for a 72 hour incubation period (Table 2). Free payloads produced cytotoxicities in the nanomolar range.
Tumor cell lines were maintained in RPMI1640 medium supplemented with 10% heat-inactivated fetal bovine serum, 2 mM L-glutamine and 1 mM sodium pyruvate. 1800 cells per well were seeded in a volume of 180 μl in a 96-well flat bottom polystyrene plate. The cells were allowed to adhere overnight at 37° C. in a CO2 incubator. Ligands were initially formulated in DMSO, and stocks stored at −80° C. They were then further formulated at lox concentration in RPMI1640 medium. 20 ul of diluted samples were added into each treatment well. On each plate, blank wells with no cells, and untreated wells containing cells, were included. Plates were then cultured at 37° C. in a CO2 incubator for 72 hrs. Cytotoxicity was evaluated using a tetrazolium salt-based assay, the MTT assay. After 72 hours, the supernatant was removed from each well and 200 μl of a sterile filtered 500 μg/ml MTT solution in water added to each well. The plates were then incubated at 37° C. in a CO2 incubator for 4 hrs. The supernatant was then removed and the formazan crystals formed solubilized by adding 150 μl of DMSO to each well. The plate was then read on a plate reader at 540 nm, and percentage cell survival calculated as follows: ((mean absorbance treated wells at concentration x−mean absorbance blank wells)+(mean absorbance untreated wells at concentration x−mean absorbance blank wells))×100. Data were plotted as concentration in nM vs. % cell survival in Microsoft Excel, and IC50 values (concentration where cell survival is reduced by a half) were determined from the graph.

[1] = tested on: transcription factors in HeLa cells; assay: Transcription factor plate array assay; details: 100 nM, 6 hours
Method: The consensus sequences of each of these transcription factors corresponds to the DNA footprinting pattern observed for 16.
The transcription factor plate array assay kit was obtained from Signosis Inc (USA). Briefly, 2×10^6 HeLa cells were treated with 100 nM compound 16 and incubated for 6 hours before extracting the nuclear protein and carrying out the TF plate array assay. The assay was carried out following the manufacturer's protocol. In the case of each transcription factor, the RLU value obtained for the cells treated with 16 was deducted from the respective values obtained for the untreated cells to obtain the differences in TF activation/inhibition.

EMRSA 16 = assay: MIC assay, EMRSA 16; details: Staphylococcus aureus
Method: The antimicrobial activity of a selection of compounds were evaluated in a Gram-negative, Gram-positive and multi-resistant bacteria using the standard minimum inhibitory concentration (MIC) assay for an overnight (16-20 hour) incubation period. Commercially marketed antibiotics (Table 3) were used as positive controls during the study.
Mueller-Hinton broth (MH Broth) (Sigma-Aldrich; Millipore, cat. no. 70192) and Mueller-Hinton agar (MHA) (Sigma-Aldrich; Millipore, cat. no. 70191) were prepared as per manufacturer's instructions and sterilized by autoclaving. Approximately 20 mL of MHA was poured onto 15×100 mm petri dishes and allowed to set. Agar plates were then stored in plastic bags in an inverted position at 4° C.
Bacterial strains were provided in the form of a glycerol stock, stored at −80° C. For the purpose of preparation of bacterial suspension, appropriate strains were removed from −80° C. storage onto dry ice and not allowed to freeze-thaw.
Stock solutions of 16, 45 and 73 were provided in DMSO at 1.28 mg/mL concentration. From this stock solution, working solutions of the desired concentration were prepared by diluting with MHB.
MIC assay methodology was adapted from previously published work.
Bacterial isolate to be tested was streaked onto a nutrient-rich MH agar plate and incubated overnight at 37° C. in order to obtain single colonies.
After overnight incubation, single colonies with the same morphological appearance were chosen from the agar plate. These were touched using a sterile loop and transferred into a tube containing 10 mL of a MH broth. They were then mixed using vortex mixer and incubated at 35-37° C. in a shaker at 200 r.p.m. overnight.
Determination of OD600 and cfu/mL count OD600 (the optical density of a sample measured at a wavelength of 600 nm) of the overnight culture was measured. Because of the loss of linearity at OD600 values […], it was necessary to dilute the sample until the OD600 value was below 1.0. For all tested bacteria, a dilution of 1:10 was appropriate (100 μL in 900 μL broth).
The overnight culture was then diluted 1:100 using sterile tubes and MH broth (dilution: 10^−2). Serial dilution was then performed six times until dilution of 10^−8 was reached. 100 μL of dilutions 10^−7 and 10^−8 were plated onto MH agar plates in triplicate using a sterile cell spreader and incubated overnight at 37° C.
After overnight incubation, colonies on plates were counted and cfu per mL calculated. The following formula was applied: […]
After overnight incubation, the OD600 was measured and the overnight culture was diluted accordingly to obtain 1×10^8 cfu/mL. […]
The 96-well plates were read using a SpectraMax plate reader at an absorbance of 600 nm. […]

How did the IC50 (LIM1215) turn out when `COc1cc2c(cc1OCCCC(=O)Nc1cc(C(=O)Nc3ccc(-c4cc(C(=O)Nc5ccc(N)cc5)n(C)c4)cc3)n(C)c1)NC[C@@H]1CCCCN1C2=O` [Compound 16, (S)—N-(4-Aminophenyl)-4-(4-(4-(4-((2-methoxy-12-oxo-5,6,6a,7,8,9,10,12-octahydrobenzo[e]pyrido[1,2-a][1,4]diazepin-3-yl)oxy)butanamido)-1-methyl-1H-pyrrole-2-carboxamido)phenyl)-1-methyl-1H-pyrrole-2-carboxamide] was run?
Its IC50 is 72 nM.

What about the IC50 (A431 (Skin)) of the same compound?
The IC50 was 61.5 nM.

And the “major transcription factors down-regulated” value [1]?
Its value is “GR/PR, CDP, ATG2 and Oct-4”.

What about the MIC (EMRSA 16) of the same compound?
The MIC was 0.25 to 0.5 µg/mL (≈ 0.329 to 0.659 µM).
